Reference: patent publication US10414797B2, “Gelatinase inhibitors and use thereof” (Iproteos S.L, priority 2015, dated 2019)
Where a SMILES comes first, the peptide text is derived from it. [ ]: non-standard residue; d: D form. The star is where a group is joined. ξ: configuration not given here. Pro(trans-4-F) = O=C(O)[C@@H]1C[C@@H](F)CN1; NMeW = CN[C@@H](Cc1c[nH]c2ccccc12)C(=O)O; Benzoyl(3,5-F2) = O=C(c1cc(F)cc(F)c1)*; NMeIle(3ξ) = CCC(C)[C@H](NC)C(=O)O; NMeF = CN[C@@H](Cc1ccccc1)C(=O)O; NMeQ = CN[C@@H](CCC(N)=O)C(=O)O; NMeL = CN[C@@H](CC(C)C)C(=O)O; NMeA = CN[C@@H](C)C(=O)O; Dab = NCC[C@H](N)C(=O)O; Hexanoyl = CCCCCC(=O)*; Butyryl = CCCC(=O)*; Bz = O=C(c1ccccc1)*; NHOH = ON*

How the values were obtained:
[1] = Parallel artificial membrane permeability assay (PAMPA), Blood-Brain Barrier; format: in vitro ADME; conditions: initial concentration 200 μM, pH 7.4, 4 hours; for Papp at 4 h, 200 µM: pig, read-out: Effective permeability Pe
Description: Parallel Artificial Membrane Permeability Assay (PAMPA)
Parallel artificial membrane permeability assay (PAMPA) described in Kansy et al., J. M. Chem. 1998; 41(7):1007-10 was used here to determine the capacity of compounds to cross the Blood-Brain Barrier (BBB) by passive diffusion (Di L et al., Eur. J. Med. Chem. 2003; 38(3):223-32). The effective permeability (Pe) of the compounds was measured at an initial concentration of 200 μM. The buffer solution was prepared from a commercial concentrated one following the manufacturer's instructions. pH was adjusted to 7.4 using a 0.5 M NaOH solution. A stock solution of new compound was prepared in DMSO and diluted with buffer solution to a final 200 μM concentration (0.5% DMSO content). The PAMPA sandwich was separated and each donor well was filled with […] of the compound solution. The acceptor plate was placed into the donor plate, ensuring that the underside of the membrane was in contact with buffer. 4 μL of the mixture of phospholipids (20 mg/ml) in dodecane was added to the filter of each well, and 200 μL of buffer solution was added to the each acceptor well. The plate was covered and incubated at room temperature in a saturated humidity atmosphere for 4 hours under orbital agitation at 100 rpm. After 4 hours, the contents of the acceptor and donor compartments were analyzed by HPLC: 150 μL of each well from the donor plate and 150 μL of each well from the acceptor plate were transferred to HPLC vials, injecting each sample into a reverse-phase C18 column (150 mm×4.6 mm×5 μm, 100 Å) (100 μL/injection from the acceptor wells, 10 μL/injection from the donor wells and for t0 references). Transport was also confirmed using mass spectrometry (MALDI-TOF).
The phospholipid mixture used was a porcine polar brain lipid extract, provided by Avanti polar lipids, with the following composition: 12.6% phosphatidylcholine (PC), 33.1% phosphatidylethanolamine (PE), 18.5% phosphatidylserine (PS), 4.1% phosphatidylinositol (PI), 0.8% phosphatidic acid and 30.9% of other compounds.
The effective permeability (Pe) after 4 hours was calculated using equation 2 and the percentage of transport (T %) was calculated using equation 3: […]
Ca(t) is the compound concentration in the acceptor well at time t
And Cd(t0) is the compound concentration in the donor well at t0.

MMP-3 = MMP-3 (Homo sapiens (Human), UniProt P08254); assay: MMP-3 inhibition assay (fluorogenic peptide substrate); format: biochemical; conditions: recombinant MMP-3 7.7 nM, Mca-RPKPVE-Nval-WRK(Dnp)-NH2 10 μM, 4 hours at room temperature; tested at 1, 10, 100 and 200 μM
MMP-3, sequence (P08254 100-477): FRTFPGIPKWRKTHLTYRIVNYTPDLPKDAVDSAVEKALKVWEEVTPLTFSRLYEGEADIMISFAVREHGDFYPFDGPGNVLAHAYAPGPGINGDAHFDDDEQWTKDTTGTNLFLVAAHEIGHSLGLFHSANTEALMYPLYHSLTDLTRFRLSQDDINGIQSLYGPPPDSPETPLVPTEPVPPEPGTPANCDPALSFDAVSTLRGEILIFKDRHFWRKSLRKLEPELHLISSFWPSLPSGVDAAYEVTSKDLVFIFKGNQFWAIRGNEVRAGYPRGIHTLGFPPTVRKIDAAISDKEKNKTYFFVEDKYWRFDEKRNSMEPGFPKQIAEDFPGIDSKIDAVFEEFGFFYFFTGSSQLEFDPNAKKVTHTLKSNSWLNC
Description: (§1) All the experiments were done in 1× reaction buffer, which was obtained from a 10× reaction buffer solution. The content of the 10× reaction buffer was: 50 mL of 0.5 M Tris-HCl, 1.5 M NaCl, 50 mM CaCl2 and 2 mM sodium azide at pH 7.6. To obtain the 1× reaction buffer 4 mL of the 10× reaction buffer were diluted in 36 mL of H2O.
Recombinant MMP-3 expressed in E. Coli was obtained from Merck-Millipore (catalog number 44217). Mca-RPKPVE-Nval-WRK(Dnp)-NH2 (fluorogenic peptide substrate) was obtained from R&D Systems (catalog number ES002).
Preparation of the MMP-3 for the activity assay: MMP-3 was provided as a stock solution (0.1 mg/mL). The enzyme was diluted in water to a final concentration of 0.005 mg/mL.
MMP-3 peptide substrate was provided as a stock solution in DMSO (4.5 mM). For the assay, the substrate was diluted 1× reaction buffer to a concentration of 100 μM.
Procedure: The enzymatic assays were performed in 96-well microtiter plate, which allowed simultaneous monitoring of multiple reactions. For each reaction, 84.6 μL of 1× reaction buffer (pH 7.6), 3.4 μL of MMP-3 (final concentration 7.7 nM) and 2 μL of the corresponding new compound were added to each well. A stock solution of new compound was prepared in DMSO (100 mM), and dilutions were prepared from this stock solution with DMSO. Finally, to the mixture contained in each well 10 μL of the substrate were added (final concentration 10 μM). The reaction was incubated for 4 hours at room temperature in an orbital shaker (90 rpm).
The inhibitory activity of the new compound was measured fluorimetrically. The excitation and emission wavelengths were 320 and 405 nm, respectively.
Inhibitory activity at several concentration points (1, 10, 100 and 200 μM) were measured for each compound. The inhibitory activity on MMP-1, MMP-3 and MMP-7 was calculated according to eq 1 and The IC50 value was calculated as explained above for MMP-2 and MMP-9.

MMP-2 = MMP-2 (Homo sapiens (Human), UniProt P08253); assay: MMP-2 inhibition assay (fluorimetric, DQ gelatin substrate); format: biochemical; conditions: recombinant MMP-2 (CHO cells) 85 ng/mL, DQ gelatin 50 μg/mL, 2 hours at room temperature, pH 7.6
MMP-2, sequence (P08253 110-660): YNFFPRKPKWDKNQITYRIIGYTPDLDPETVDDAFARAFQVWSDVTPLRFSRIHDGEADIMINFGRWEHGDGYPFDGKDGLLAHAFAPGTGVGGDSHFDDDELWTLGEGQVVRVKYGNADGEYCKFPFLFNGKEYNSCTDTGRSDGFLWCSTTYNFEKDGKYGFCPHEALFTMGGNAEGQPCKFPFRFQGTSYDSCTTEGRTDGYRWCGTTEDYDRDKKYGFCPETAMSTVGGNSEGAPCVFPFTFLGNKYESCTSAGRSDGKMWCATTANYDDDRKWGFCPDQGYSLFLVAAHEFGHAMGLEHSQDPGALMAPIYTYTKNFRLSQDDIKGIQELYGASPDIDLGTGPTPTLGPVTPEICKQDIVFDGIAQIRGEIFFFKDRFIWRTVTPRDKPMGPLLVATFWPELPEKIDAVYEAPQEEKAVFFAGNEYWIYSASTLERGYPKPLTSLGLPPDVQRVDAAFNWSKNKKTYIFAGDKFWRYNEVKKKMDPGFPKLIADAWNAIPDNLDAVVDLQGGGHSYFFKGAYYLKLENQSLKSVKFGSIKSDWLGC
Description: as §1
Recombinant MMP-2 expressed in Chinese hamster ovary (CHO) cells was obtained from Merck-Millipore (catalog number PF023-5UG). DQ gelatin from pig skin fluorescein conjugated (MMP-2 substrate) was obtained from Life Technologies (catalog number E12055).
Preparation of the MMP-2 for the activity assay: MMP-2 was provided as a stock solution (0.1 mg/mL). The enzyme was diluted in 1× reaction buffer to a final concentration of 5 μg/mL.
Preparation of the DQ gelatin (substrate) solution for the activity assay: the solid form of the substrate was dissolved in water in order to obtain a stock solution of 1 mg/mL.
Procedure: The enzymatic assays were performed in 96-well microtiter plate, which allowed simultaneous monitoring of multiple reactions. For each reaction, 86.3 μL of 1× reaction buffer (pH 7.6), 1.7 μL of MMP-2 (final concentration 85 ng/mL) and 2 μL of the corresponding new compound were added to each well. A stock solution of new compound was prepared in DMSO (100 mM), and dilutions were prepared from this stock solution with DMSO. Finally, to the mixture contained in each well 10 μL of the substrate were added (final concentration 50 μg/mL). The reaction was incubated for 2 hours at room temperature in an orbital shaker (100 rpm).
The inhibitory activity of the new compound was measured fluorimetrically. The excitation and emission wavelengths were 483 and 525 nm, respectively.
Inhibitory activity at several concentration points (ranging from 100 pM to 200 μM MMP) were measured for each compound. The inhibitory activity on MMP-2 and MMP-9 was calculated according to eq 1. For each new compound, the fluorescence in the presence (a) and in the absence (b) of the corresponding MMP was measured. The maximum fluorescence (0% inhibitory activity) was obtained from a sample of the corresponding MMP in the absence of inhibitory compounds. To estimate the inhibitory potency of the novel compounds, activities were plotted against the log concentration of the compound, adjusting to a sigmoid curve using GraphPad Prism software, and the IC50 value, defined as the concentration of compound required to inhibit 50% of the corresponding MMP activity, was determined from resulting curve.
a corresponds to fluorescence intensity in the presence of substrate+test compound+MMP
b corresponds to the fluorescence intensity in the presence of substrate+tested compound
c corresponds to the fluorescence intensity in the presence of substrate+MMP
d corresponds to the fluorescence intensity of the presence of substrate

Compound	IC50 (MMP-3)	IC50 (MMP-2)	percentage of transport % T [1]	Papp at 4 h, 200 µM [1]	MMP-3 IC50 (MMP-3)
CCCCCC(=O)N1CCC[C@H]1C(=O)N(C)[C@H](C(=O)N[C@@H](CCNC(=O)c1ccccc1)C(=O)NO)C(C)CC (stereo partly drawn) [Example 15, (2S)—N-[(1S)-1-[[(1S)-3-benzamido-1-(hydroxycarbamoyl)propyl]carbamoyl]-2-methyl-butyl]-N-methyl-1-hexanoyl-pyrrolidine-2-carboxamide] (Hexanoyl-Pro-[NMeIle(3ξ)]-[Dab](Bz)-{NHOH})	9.89 µM	0.285 µM	2.3%	1.1 ×10⁻⁶ cm/s	
CCC(C)[C@@H](C(=O)N[C@@H](CCNC(=O)c1cc(F)cc(F)c1)C(=O)NO)N(C)C(=O)[C@@H]1CCCN1C(=O)CC(C)C (stereo partly drawn) [Example 5, (2S)—N-[(1S)-1-[[(1S)-3-[(3,5-difluorobenzoyl)amino]-1-(hydroxycarbamoyl)propyl]carbamoyl]-2-methyl-butyl]-N-methyl-1-(3-methylbutanoyl)pyrrolidine-2-carboxamide]	25.7 µM	0.116 µM	7.6%	1.9 ×10⁻⁶ cm/s	
CCCCCC(=O)N1C[C@H](F)C[C@H]1C(=O)N(C)[C@H](C(=O)N[C@@H](CCNC(=O)c1ccccc1)C(=O)NO)C(C)CC (stereo partly drawn) [Example 16, (2S,4R)—N-[(1S)-1-[[(1S)-3-benzamido-1-(hydroxycarbamoyl)propyl]carbamoyl]-2-methyl-butyl]-4-fluoro-N-methyl-1-hexanoyl-pyrrolidine-2-carboxamide] (Hexanoyl-[Pro(trans-4-F)]-[NMeIle(3ξ)]-[Dab](Bz)-{NHOH})		< 0.001 µM	7.3%	3.7 ×10⁻⁶ cm/s	<1 µM
CCC(C)[C@@H](C(=O)N[C@@H](CCNC(=O)c1cc(F)cc(F)c1)C(=O)NO)N(C)C(=O)[C@@H]1CCCN1C(=O)[C@H](Cc1ccccc1)N(C)C(C)=O (stereo partly drawn) [Example 11, (2 S)-1-[(2S)-2-[acetyl(methyl)amino]-3-phenyl-propanoyl]-N-[(1S)-1-[[(1S)-3-[(3,5-difluorobenzoyl)amino]-1-(hydroxycarbamoyl)propyl]carbamoyl]-2-methyl-butyl]-N-methyl-pyrrolidine-2-carboxamide] (Ac-[NMeF]P[NMeIle(3ξ)][Dab](Benzoyl(3,5-F2))-{NHOH})	200 µM	0.174 µM			
CCC(C)[C@@H](C(=O)N[C@@H](CCNC(=O)c1cc(F)cc(F)c1)C(=O)NO)N(C)C(=O)[C@@H]1CCCN1C(=O)CCN(C)C(C)=O (stereo partly drawn) [Example 13, (2S)-1-[3-[acetyl(methyl)amino]propanoyl]-N-[(1S)-1-[[(1S)-3-[(3,5-difluorobenzoyl)amino]-1-(hydroxycarbamoyl)propyl]carbamoyl]-2-methyl-butyl]-N-methyl-pyrrolidine-2-carboxamide]	200 µM	1.15 µM			
CCC(C)[C@@H](C(=O)N[C@@H](CCNC(=O)c1cc(F)cc(F)c1)C(=O)NO)N(C)C(=O)[C@@H]1CCCN1C(=O)[C@H](C)N(C)C(C)=O (stereo partly drawn) [Example 12, (2 S)-1-[(2S)-2-[acetyl(methyl)amino]propanoyl]-N-[(1S)-1-[[(1S)-3-[(3,5-difluorobenzoyl)amino]-1-(hydroxycarbamoyl)propyl]carbamoyl]-2-methyl-butyl]-N-methyl-pyrrolidine-2-carboxamide] (Ac-[NMeA]P[NMeIle(3ξ)][Dab](Benzoyl(3,5-F2))-{NHOH})	157 µM	0.021 µM			

Further lines, with some results ahead:

IC50 (MMP-3)	IC50 (MMP-2)	Compound	percentage of transport % T [1]	Papp at 4 h, 200 µM [1]	MMP-3 IC50 (MMP-3)
3.1 µM	110 µM	CC(=O)N1CCC[C@H]1C(=O)N[C@@H](CCC(N)=O)C(=O)N[C@@H](Cc1c[nH]c2ccccc12)C(=O)NO [Example C17, (2S)-2-[[(2S)-1-acetylpyrrolidine-2-carbonyl)amino]-N-[(1S)-2-(hydroxyamino)-1-(1H-indol-3-ylmethyl)-2-oxo-ethyl]pentanediamide, reference compound] (Ac-Pro-Gln-Trp-{NHOH})			
> 2000 µM	53 µM	CC(=O)N1CCC[C@H]1C(=O)N(C)[C@@H](CCC(N)=O)C(=O)N[C@@H](Cc1c[nH]c2ccccc12)C(=O)NO [Example C20, (2S)-2-[[(2S)-1-acetylpyrrolidine-2-carbonyl]-methyl-amino]-N-[(1S)-2-(hydroxyamino)-1-(1H-indol-3-ylmethyl)-2-oxo-ethyl]pentanediamide, reference compound] (Ac-Pro-[NMeQ]-Trp-{NHOH})			
	0.116 µM	CCCC(=O)N(C)[C@@H](Cc1c[nH]c2ccccc12)C(=O)N(C)[C@@H](CC(C)C)C(=O)N1CCC[C@H]1C(=O)N(C)[C@H](C(=O)N[C@@H](CCNC(=O)c1cc(F)cc(F)c1)C(=O)NO)C(C)CC (stereo partly drawn) [Example 14, (2S)-1-[(2S)-2-[[(2S)-2-[butanoyl(methyl)amino]-3-(1H-indol-3-yl)propanoyl]-methyl-amino]-4-methyl-pentanoyl]-N-[(1S)-1-[[(1S)-3-[(3,5-difluorobenzoyl)amino]-1-(hydroxycarbamoyl)propyl]carbamoyl]-2-methyl-butyl]-N-methyl-pyrrolidine-2-carboxamide] (Butyryl-[NMeW][NMeL]P[NMeIle(3ξ)][Dab](Benzoyl(3,5-F2))-{NHOH})			<1 µM
